Consider 68 compounds from patent US20060252807A1, “Novel ortho-terphenyl inhibitors of p38 kinase and methods of treating inflammatory disorders” (Kalypsys, Inc., priority 2005, published 2006).

T1 sequence (Q16539 whole entry): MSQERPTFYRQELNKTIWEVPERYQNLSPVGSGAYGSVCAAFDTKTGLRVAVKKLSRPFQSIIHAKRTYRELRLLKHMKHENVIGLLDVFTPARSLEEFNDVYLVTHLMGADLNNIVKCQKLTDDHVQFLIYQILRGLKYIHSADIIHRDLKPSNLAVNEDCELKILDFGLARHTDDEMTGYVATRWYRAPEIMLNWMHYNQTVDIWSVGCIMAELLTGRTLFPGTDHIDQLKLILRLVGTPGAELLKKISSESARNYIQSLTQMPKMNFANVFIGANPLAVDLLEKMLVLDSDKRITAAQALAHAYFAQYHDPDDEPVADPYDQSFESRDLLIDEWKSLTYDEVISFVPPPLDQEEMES

The assay addresses T1, active p38 alpha enzyme (Upstate Biotechnology) (Homo sapiens, UniProt Q16539).
T1 construct: purchased Upstate Biotechnology
Put plainly: p38α biochemical assay (ATP turnover, luminescent detection, Cambrex PKlight). Conditions: p38α kinase; Table 1 Biological Activity. The gist of the method:
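Active p38α phosphorylates MapkapK2 whole protein with 1.4 uM final ATP, 2 h at 30C, in Tris/MOPS buffer with MgCl2, CaCl2, EGTA, EDTA, glycerol, β-mercaptoethanol and 1 mg/ml BSA. Compounds pin-delivered from DMSO; total ATP turnover read by luminescence after PKlight addition.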
For the compound `CC(C)NC(=O)c1csc(-c2c(-c3ccc(F)cc3)noc2CNCc2ccccn2)n1` [Example 1417], the IC50 (as a rule, the concentration that inhibits the measured activity by half) is > 1000 nM. Turning to `CC(C)NC(=O)c1csc(-c2c(-c3ccc(F)cc3)noc2CNCc2ccncc2)n1` [Example 1418], the IC50 was > 1000 nM. In the case of `CC(C)NC(=O)c1csc(-c2c(-c3ccc(F)cc3)noc2CNCc2cccs2)n1` [Example 1419], the IC50 is > 1000 nM.

Regarding `CC1CCC(NCc2onc(-c3ccc(F)cc3)c2-c2nc(C(=O)NC(C)C)cs2)CC1` (centres unmarked) [Example 1420], the IC50 is > 1000 nM.

On to `CC(C)NC(=O)c1csc(-c2c(-c3ccc(F)cc3)noc2CNCC2CCCCC2)n1` [Example 1421], for which the IC50 was > 1000 nM.

For the compound `CC(C)NC(=O)c1csc(-c2c(-c3ccc(F)cc3)noc2CNC2CCCCCC2)n1` [Example 1422], the IC50 was > 1000 nM.

`CC(C)NC(=O)c1csc(-c2c(-c3ccc(F)cc3)noc2CNC2CCCCC2C)n1` (centres unmarked) [Example 1423]: the IC50 was > 1000 nM.

Turning to `CC(C)NC(=O)c1csc(-c2c(-c3ccc(F)cc3)noc2CNCCN2CCCC2)n1` [Example 1424], the IC50 was ≤ 1000 nM.

Take `CC(C)NC(=O)c1csc(-c2c(-c3ccc(F)cc3)noc2CNN2CCN(C)CC2)n1` [Example 1425]: the IC50 was > 1000 nM. With `CCN(CC)CCNCc1onc(-c2ccc(F)cc2)c1-c1nc(C(=O)NC(C)C)cs1` [Example 1426], the IC50 was > 1000 nM. In the case of `Cc1cccc(CNCc2onc(-c3ccc(F)cc3)c2-c2nc(C(=O)NC(C)C)cs2)c1` [Example 1427], the IC50 is > 1000 nM. Take `CC(C)NC(=O)c1csc(-c2c(-c3ccc(F)cc3)noc2CN[C@@H](C)c2ccccc2)n1` [Example 1428]: the IC50 was > 1000 nM. Turning to `CC(C)NC(=O)c1csc(-c2c(-c3ccc(F)cc3)noc2CN[C@H](C)c2ccccc2)n1` [Example 1429], the IC50 was > 1000 nM. Take `CC(C)NC(=O)c1csc(-c2c(-c3ccc(F)cc3)noc2CNCCc2ccccc2)n1` [Example 1430]: the IC50 was > 1000 nM. For `Cc1ccccc1CNCc1onc(-c2ccc(F)cc2)c1-c1nc(C(=O)NC(C)C)cs1` [Example 1431], the IC50 was > 1000 nM. With `Cc1ccc(CNCc2onc(-c3ccc(F)cc3)c2-c2nc(C(=O)NC(C)C)cs2)cc1` [Example 1432], the 50% inhibitory concentration (IC50) is > 1000 nM. With `Cc1cnc(CNCc2onc(-c3ccc(F)cc3)c2-c2nc(C(=O)NC(C)C)cs2)cn1` [Example 1433], the IC50 is > 1000 nM. On to `CC(C)NC(=O)c1csc(-c2c(-c3ccc(F)cc3)noc2CNCc2cccc(F)c2)n1` [Example 1434], for which the IC50 was > 1000 nM. The result for `CC(C)NC(=O)c1csc(-c2c(-c3ccc(F)cc3)noc2CNCc2ccc(F)cc2)n1` [Example 1435] reads > 1000 nM; that for `CC(C)NC(=O)c1csc(-c2c(-c3ccc(F)cc3)noc2CNCc2ccccc2F)n1` [Example 1436], > 1000 nM; that for `CC(C)NC(=O)c1csc(-c2c(-c3ccc(F)cc3)noc2CNCCCn2ccnc2)n1` [Example 1437], > 1000 nM. Then `CC(C)NC(=O)c1csc(-c2c(-c3ccc(F)cc3)noc2CNCCC2CCCN2C)n1` (centres unmarked) [Example 1438], with > 1000 nM; and `CC(C)NC(=O)c1csc(-c2c(-c3ccc(F)cc3)noc2CNCCN2CCCCC2)n1` [Example 1439], with > 1000 nM; and `CC(C)CCCC(C)NCc1onc(-c2ccc(F)cc2)c1-c1nc(C(=O)NC(C)C)cs1` (centres unmarked) [Example 1440], with > 1000 nM. For `CC(C)NC(=O)c1csc(-c2c(-c3ccc(F)cc3)noc2CNCCN2CCOCC2)n1` [Example 1441], the IC50 is > 1000 nM.

Turning to `CCOC(=O)CC(C)NCc1onc(-c2ccc(F)cc2)c1-c1nc(C(=O)NC(C)C)cs1` (centres unmarked) [Example 1442], the IC50 is > 1000 nM. Take `CC(C)NC(=O)c1csc(-c2c(-c3ccc(F)cc3)noc2CNC2CCc3ccccc32)n1` (centres unmarked) [Example 1443]: the concentration for half-maximal inhibition (IC50) is > 1000 nM. Then `Cc1ccc(CCNCc2onc(-c3ccc(F)cc3)c2-c2nc(C(=O)NC(C)C)cs2)cc1` [Example 1444], with > 1000 nM; and `Cc1ccc(C)c(CNCc2onc(-c3ccc(F)cc3)c2-c2nc(C(=O)NC(C)C)cs2)c1` [Example 1445], with > 1000 nM; and `Cc1ccc([C@H](C)NCc2onc(-c3ccc(F)cc3)c2-c2nc(C(=O)NC(C)C)cs2)cc1` [Example 1446], with > 1000 nM. Regarding `Cc1ccc([C@@H](C)NCc2onc(-c3ccc(F)cc3)c2-c2nc(C(=O)NC(C)C)cs2)cc1` [Example 1447], the IC50 was > 1000 nM. On to `CC(C)NC(=O)c1csc(-c2c(-c3ccc(F)cc3)noc2CNCC(C)c2ccccc2)n1` (centres unmarked) [Example 1448], for which the IC50 was > 1000 nM. Regarding `CC(C)NC(=O)c1csc(-c2c(-c3ccc(F)cc3)noc2CNCC(C)c2ccccc2)n1` (centres unmarked) [Example 1449], the IC50 is > 1000 nM. In the case of `CC(C)NC(=O)c1csc(-c2c(-c3ccc(F)cc3)noc2CNCCCc2ccccc2)n1` [Example 1450], the IC50 was > 1000 nM. For `Cc1ccc(CNCc2onc(-c3ccc(F)cc3)c2-c2nc(C(=O)NC(C)C)cs2)cc1C` [Example 1451], the IC50 is > 1000 nM. In the case of `CC(C)NC(=O)c1csc(-c2c(-c3ccc(F)cc3)noc2CNC(C)Cc2ccncc2)n1` (centres unmarked) [Example 1452], the IC50 is > 1000 nM. The result for `CC(C)NC(=O)c1csc(-c2c(-c3ccc(F)cc3)noc2CNCCc2ccc(O)cc2)n1` [Example 1453] reads > 1000 nM; that for `CC(C)NC(=O)c1csc(-c2c(-c3ccc(F)cc3)noc2CNCCOc2ccccc2)n1` [Example 1454], > 1000 nM. The result for `COc1ccccc1CNCc1onc(-c2ccc(F)cc2)c1-c1nc(C(=O)NC(C)C)cs1` [Example 1455] reads > 1000 nM; that for `COc1ccc(CNCc2onc(-c3ccc(F)cc3)c2-c2nc(C(=O)NC(C)C)cs2)cc1` [Example 1456], > 1000 nM; that for `COc1cccc(CNCc2onc(-c3ccc(F)cc3)c2-c2nc(C(=O)NCC(C)C)cs2)c1` [Example 1457], > 1000 nM. Take `CC(C)NC(=O)c1csc(-c2c(-c3ccc(F)cc3)noc2CNCCc2ccc(F)cc2)n1` [Example 1458]: the IC50 is > 1000 nM. For `CC(C)NC(=O)c1csc(-c2c(-c3ccc(F)cc3)noc2CNCCc2ccccc2F)n1` [Example 1459], the IC50 was > 1000 nM. For `CC(C)NC(=O)c1csc(-c2c(-c3ccc(F)cc3)noc2CNCCc2cccc(F)c2)n1` [Example 1460], the IC50 was > 1000 nM. Then `CC(C)NC(=O)c1csc(-c2c(-c3ccc(F)cc3)noc2CNCc2cccc(Cl)c2)n1` [Example 1461], with > 1000 nM; and `CC(C)NC(=O)c1csc(-c2c(-c3ccc(F)cc3)noc2CNCc2ccccc2Cl)n1` [Example 1462], with > 1000 nM. On to `CC(C)NC(=O)c1csc(-c2c(-c3ccc(F)cc3)noc2CNCc2ccc(Cl)cc2)n1` [Example 1463], for which the IC50 is > 1000 nM. As for `CC(C)NC(=O)c1csc(-c2c(-c3ccc(F)cc3)noc2CNCCCN2CCCC2=O)n1` [Example 1464], the IC50 is ≤ 1000 nM. Then `CC(C)NC(=O)c1csc(-c2c(-c3ccc(F)cc3)noc2CNCc2ccc(F)cc2F)n1` [Example 1465], with > 1000 nM; and `CC(C)NC(=O)c1csc(-c2c(-c3ccc(F)cc3)noc2CNCc2ccc(F)c(F)c2)n1` [Example 1466], with > 1000 nM. As to `CC(C)NC(=O)c1csc(-c2c(-c3ccc(F)cc3)noc2CNCc2cc(F)cc(F)c2)n1` [Example 1467], the IC50 is > 1000 nM. As for `CC(C)NC(=O)c1csc(-c2c(-c3ccc(F)cc3)noc2CNCCCN2CCOCC2)n1` [Example 1468], the IC50 is > 1000 nM. The result for `CC(C)NC(=O)c1csc(-c2c(-c3ccc(F)cc3)noc2CNCCN(C(C)C)C(C)C)n1` [Example 1469] reads > 1000 nM. In the case of `CC(C)NC(=O)c1csc(-c2c(-c3ccc(F)cc3)noc2CNC(C)CCc2ccccc2)n1` (centres unmarked) [Example 1470], the IC50 was > 1000 nM.

With `CC(C)NC(=O)c1csc(-c2c(-c3ccc(F)cc3)noc2CNCc2ccc(C(C)C)cc2)n1` [Example 1471], the IC50 is > 1000 nM. In the case of `CC(C)NC(=O)c1csc(-c2c(-c3ccc(F)cc3)noc2CNCc2ccc3c(c2)OCO3)n1` [Example 1472], the IC50 is > 1000 nM. As for `COc1cccc(CCNCc2onc(-c3ccc(F)cc3)c2-c2nc(C(=O)NC(C)C)cs2)c1` [Example 1473], the IC50 is > 1000 nM. Then `CC(C)NC(=O)c1csc(-c2c(-c3ccc(F)cc3)noc2CN[C@H](CO)Cc2ccccc2)n1` [Example 1474], with > 1000 nM. In the case of `COc1ccc(CCNCc2onc(-c3ccc(F)cc3)c2-c2nc(C(=O)NC(C)C)cs2)cc1` [Example 1475], the IC50 is > 1000 nM.

In the case of `COc1ccccc1CCNCc1onc(-c2ccc(F)cc2)c1-c1nc(C(=O)NC(C)C)cs1` [Example 1476], the IC50 was > 1000 nM.

As to `CCOc1ccccc1CNCc1onc(-c2ccc(F)cc2)c1-c1nc(C(=O)NC(C)C)cs1` [Example 1477], the IC50 is > 1000 nM. On to `CC(C)NC(=O)c1csc(-c2c(-c3ccc(F)cc3)noc2CNCCc2ccccc2Cl)n1` [Example 1478], for which the IC50 is > 1000 nM. Turning to `CC(C)NC(=O)c1csc(-c2c(-c3ccc(F)cc3)noc2CNCCc2ccc(Cl)cc2)n1` [Example 1479], the IC50 was > 1000 nM.

On to `CC(C)NC(=O)c1csc(-c2c(-c3ccc(F)cc3)noc2CNCCc2cccc(Cl)c2)n1` [Example 1480], for which the IC50 was > 1000 nM. For the compound `CC(C)NC(=O)c1csc(-c2c(-c3ccc(F)cc3)noc2CNC2CC(C)(C)NC(C)(C)C2)n1` [Example 1481], the IC50 was > 1000 nM. The result for `CCN(CC)CCCC(C)NCc1onc(-c2ccc(F)cc2)c1-c1nc(C(=O)NC(C)C)cs1` (centres unmarked) [Example 1482] reads > 1000 nM. As for `CC(C)NC(=O)c1csc(-c2c(-c3ccc(F)cc3)noc2CNCc2ccc(F)c(Cl)c2)n1` [Example 1483], the IC50 was > 1000 nM. In the case of `CC(C)NC(=O)c1csc(-c2c(-c3ccc(F)cc3)noc2CNCCNC(=O)OC(C)(C)C)n1` [Example 1484], the IC50 was > 1000 nM.
